Laboratory results from US20240140970A1, “A […], AND PREPARATION METHOD AND USE THEREOF” (ASCENTAWITS PHARMACEUTICALS, LTD., priority 2021, published 2024).
Values joined by “and” are separate entries in the source; they are usually repeats but may differ in a detail not shown here. Equal entries are not always repeated.

What was measured:
[1] = Experimental table stability of AST-2660 in human urine at room temperature (LC-MS/MS); format: in vitro ADME; settings: for RE (%) vs nominal / AST-2660 concentration, Mean value / AST-2660 concentration, single replicates: human urine, room temperature
Experimental: (§1) The detection method established in example 6 was used to detect the content of AST-2660 in the human urine to be tested.
(§2) Matrix: the mixed normal human urine containing an additive Na2HPO4·12H2O. • a: the internal standard working solution: AST-2660-D8 was taken, dissolved with methanol, and diluted to prepare a solution containing about 100 ng per 1 ml. • b: the solution to be tested (no internal standard compound was added to the solution to be tested at this time): it was obtained by taking a blood sample to be tested. • c: the standard working solution (no internal standard compound was added to the standard working solution at this time): an appropriate amount of AST-2660 was taken and accurately weighed, dissolved with methanol and diluted to prepare a solution containing about 1.0 mg per 1 ml, which was used as the standard working stock solution. An appropriate amount of the standard working stock solution was taken, added with the matrix and diluted to prepare standard working solutions with different concentrations containing about 200 ng, 160 ng, 100 ng, 50 ng, 10 ng, 2.0 ng, 1.0 ng and 0.5 ng per 1 ml, respectively. (The solution was stored at −70° C.) • d: the quality control sample solution: an appropriate amount of AST-2660 was taken and accurately weighed, dissolved with methanol, and diluted to prepare a solution containing about 10 μg per 1 ml, which was used as the quality control working stock solution. An appropriate amount of the quality control working stock solution was taken, and added with the matrix to prepare quality control working solutions with different concentrations containing about 150 ng, 60 ng, 15 ng, 1.5 ng and 0.5 ng per 1 ml. (The solution was stored at −70° C.)
(§3) The solution to be tested, the standard working solution and the quality control sample solution were thawed at room temperature and mixed uniformly. 100 μl of the above solution was respectively taken, added with 20 μl of the internal standard and 500 μl of methanol, and vortexed for 3 minutes to mix uniformly, and then centrifuged for 30 minutes at 2143 rcf. 450 μl of supernatant was taken, and then centrifuged for 10 minutes in a 96-well plate at 2143 rcf. It was obtained by taking 300 μl of supernatant.
(§4) Liquid phase conditions: A SHARC 1, 3 μm, 2.1*50 mm or chromatograph column with equivalent performance was used; methanol solution containing low content of ammonium acetate was used; mobile phase B was acetonitrile; the gradient elution was performed according to the following table; column temperature: 20° C.; injection volume: 5 μl.
(§5) Mass spectrometric conditions: electrospray ion source with negative ion scanning mode; spray potential: −4500 V; ion source temperature: 500° C.; collision energy (CE): −22 eV; declustering potential (DP): −55V; entrance potential (EP): −10V; collision chamber exit potential (CXP): −16V; dwell time: 100 ms; high purity nitrogen was used for all gases; AST-2660 ions pairs: m/z 147.0→m/z 62.9; the internal standard AST-2660-D8 ion pairs: m/z 155.0→m/z 62.9.
(§6) The AST-2660 standard working solution, blank sample, zero concentration sample, solution to be tested and quality control working solution with different concentrations after extraction were respectively taken and injected into LC-MS/MS for detection.
(§7) Calculation results: the relationship function y=f (x) of the ratio of the peak area of AST-2660 to that of the internal standard was obtained from AST-2660 standard working solutions with different concentrations. The ratio of the peak area of AST-2660 to that of the internal standard was determined from the solution to be tested after extraction, and substituted into the relationship function y=f (x) to calculate the concentration of the metabolite II in the solution to be tested.

[2] = Stability of AST-2660 in human urine at −20° C. and −70° C. for one month (LC-MS/MS); format: in vitro ADME
Experimental: as §1, §2, §3, §4, §5, §6, §7

[3] = QC1 nominal 1.50 ng/ml, 4 hours
[4] = QC1 nominal 1.50 ng/ml, 24 hours
[5] = QC4 nominal 150 ng/ml, 24 hours
[6] = DilQC (10-fold dilution) nominal 1500 ng/ml, 32 days at −20° C.
[7] = DilQC (10-fold dilution) nominal 1500 ng/ml, 32 days at −70° C.
[8] = QC1 nominal 1.50 ng/ml, 32 days at −70° C. (actually tested on day 34)
[9] = QC4 nominal 150 ng/ml, 32 days at −20° C.
[10] = QC4 nominal 150 ng/ml, 32 days at −70° C.

SMILES: O=P([O-])(N1CC1)N1CC1.[Na+] [AST-2660]
- RE (accuracy), range over three concentration levels ([1]; human urine at room temperature for 4 hours, 1.5, 150 and 1500 ng/ml): RE: −8.5% to 4.5%
- RE (%) vs nominal ([1]; DilQC (10-fold dilution) nominal 1500 ng/ml, 0 hour): −5.7%
- RE (%) vs nominal ([1]; DilQC (10-fold dilution) nominal 1500 ng/ml, 4 hours): −5.7%
- RE (%) vs nominal ([1]; DilQC (10-fold dilution) nominal 1500 ng/ml, 24 hours): −13.2%
- AST-2660 concentration, Mean value ([1]; QC1 nominal 1.50 ng/ml, 0 hour): 1.37 ng/mL
- AST-2660 concentration, single replicates ([1]; QC1 nominal 1.50 ng/ml, 0 hour): 1.44 ng/mL
- RE (%) vs nominal ([1]; QC1 nominal 1.50 ng/ml, 0 hour): −8.5%
- AST-2660 concentration, Mean value [1, 3]: 1.45 ng/mL
- AST-2660 concentration, single replicates [1, 3]: 1.51 ng/mL
- RE (%) vs nominal [1, 3]: −3.7%
- AST-2660 concentration, Mean value [1, 4]: 1.90 ng/mL
- AST-2660 concentration, single replicates [1, 4]: 2.07 ng/mL
- RE (%) vs nominal [1, 4]: 26.7%
- AST-2660 concentration, single replicates ([1]; QC4 nominal 150 ng/ml, 0 hour): 141 ng/mL and 144 ng/mL and 142 ng/mL and 146 ng/mL
- RE (%) vs nominal ([1]; QC4 nominal 150 ng/ml, 0 hour): −4.5%
- AST-2660 concentration, single replicates ([1]; QC4 nominal 150 ng/ml, 4 hours): 156 ng/mL and 154 ng/mL and 159 ng/mL
- RE (%) vs nominal ([1]; QC4 nominal 150 ng/ml, 4 hours): 4.5%
- AST-2660 concentration, single replicates [1, 5]: 149 ng/ml (2×) and 154 ng/ml
- RE (%) vs nominal [1, 5]: 0.8%
- stability (in words) ([1]; untreated human urine samples, 24 hours at room temperature): stable
- reduction of AST-2660 content ([2]; 32 days of storage at −20° C.): ~90%
- change of AST-2660 content (in words) ([2]; 32 days of storage at −70° C.): almost no reduction
- AST-2660 concentration, Mean value [2, 6]: 7.23 ng/mL
- AST-2660 concentration, single replicates [2, 6]: 6.87 ng/mL and 7.70 ng/mL and 7.73 ng/mL and 6.60 ng/mL
- RE (%) vs nominal [2, 6]: −99.5%
- AST-2660 concentration, Mean value [2, 7]: 1483 ng/mL
- AST-2660 concentration, single replicates [2, 7]: 1570 ng/mL and 1400 ng/mL and 1470 ng/mL and 1490 ng/mL
- RE (%) vs nominal [2, 7]: −1.2%
- AST-2660 concentration, single replicates ([2]; QC1 nominal 1.50 ng/ml, 32 days at −20° C.): <LLOQ (0.500) ng/ml
- AST-2660 concentration, Mean value [2, 8]: 1.71 ng/mL
- AST-2660 concentration, single replicates [2, 8]: 1.53 ng/mL and 1.97 ng/mL and 1.72 ng/mL and 1.60 ng/mL
- RE (%) vs nominal [2, 8]: 13.7%
- AST-2660 concentration, Mean value [2, 9]: 13.4 ng/mL
- AST-2660 concentration, single replicates [2, 9]: 13.1 ng/mL and 12.4 ng/mL and 12.9 ng/mL and 15.2 ng/mL
- RE (%) vs nominal [2, 9]: −91.1%
- AST-2660 concentration, Mean value [2, 10]: 161 ng/mL
- AST-2660 concentration, single replicates [2, 10]: 155 ng/mL and 159 ng/mL and 161 ng/mL and 168 ng/mL
- RE (%) vs nominal [2, 10]: 7.2%
